{"source": "patent US11730774B2", "about": "“Bacterial biofilms and cancer” (THE JOHNS HOPKINS UNIVERSITY, priority 2018, dated 2023)", "origin": "cited, not measured here", "test_system": "bacteria", "conditions": "6-week-old mice, water containing 500 mg/L cefoxitin for 48 hours; by 24 hours"}
{"smiles": "CO[C@@]1(NC(=O)Cc2cccs2)C(=O)N2C(C(=O)O)=C(COC(N)=O)CS[C@@H]21", "note": "[Cefoxitin]", "values": [{"measurement": "detectable bacteria by culture or 16S rRNA qPCR", "value": "absence of detectable bacteria"}]}
